Measurements published in patent publication US12577206B2 (BRISTOL-MYERS SQUIBB COMPANY, priority 2020, dated 2026).

What was measured:
human FPR1 = target: T1, human FPR1 (Homo sapiens, UniProt P21462); assay: FPR1 cyclic adenosine monophosphate (cAMP) assay; type: cell-based; conditions: CHO cells overexpressing human FPR1; forskolin 10 μM; inhibition of cAMP production; HTRF; read-out: hFPR1 cAMP2 EC50
T1 sequence (P21462 1-350): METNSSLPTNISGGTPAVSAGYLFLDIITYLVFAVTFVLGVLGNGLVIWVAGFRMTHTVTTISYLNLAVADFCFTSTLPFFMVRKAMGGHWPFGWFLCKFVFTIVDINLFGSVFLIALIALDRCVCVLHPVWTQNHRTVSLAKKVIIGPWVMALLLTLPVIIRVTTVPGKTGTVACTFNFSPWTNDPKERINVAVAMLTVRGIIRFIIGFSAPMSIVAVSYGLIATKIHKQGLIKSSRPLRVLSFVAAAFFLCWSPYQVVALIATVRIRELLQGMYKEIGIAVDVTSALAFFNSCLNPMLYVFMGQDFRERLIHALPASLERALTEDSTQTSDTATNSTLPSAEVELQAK
How it was run: (§1)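 CHO cells overexpressing human FPR1 (4,000/well) or FPR2 (2,000/well) were incubated 30 min at room temperature with compound (0.020 nM to 100 μM, 1% DMSO), IBMX 200 μM, and forskolin at 10 μM (FPR1) or 5 μM (FPR2), all final. HTRF cAMP read-out; inhibition fitted by 4-parameter logistic equation.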

human FPR2 = target: T2, human FPR2 (Homo sapiens, UniProt P25090); assay: FPR2 cyclic adenosine monophosphate (cAMP) assay; type: cell-based; conditions: CHO cells overexpressing human FPR2; forskolin 5 μM; inhibition of cAMP production; HTRF; read-out: hFPR2 cAMP2 EC50
T2 sequence (P25090 1-351): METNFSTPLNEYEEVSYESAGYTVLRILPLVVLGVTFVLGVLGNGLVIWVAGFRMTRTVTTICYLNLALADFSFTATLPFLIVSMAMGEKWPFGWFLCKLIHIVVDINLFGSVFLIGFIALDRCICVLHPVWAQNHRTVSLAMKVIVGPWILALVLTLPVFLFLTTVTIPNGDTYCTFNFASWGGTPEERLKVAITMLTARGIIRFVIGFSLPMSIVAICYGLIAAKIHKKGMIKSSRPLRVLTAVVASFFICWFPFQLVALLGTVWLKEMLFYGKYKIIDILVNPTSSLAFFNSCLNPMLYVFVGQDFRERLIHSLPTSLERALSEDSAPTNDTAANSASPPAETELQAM
How it was run: as §1

Row | EC50 (human FPR1) | EC50 (human FPR2) | Structure (SMILES)
1 | 2300 nM | 1 nM | COc1cc(F)c(-c2c(NC(=O)c3ccc(OC(F)F)cc3)c(=O)n(-c3nc(N4CCN5CCC[C@@H]5C4)ccc3C(F)(F)F)n2C)c(F)c1 [Example 306, N-(2-{6-[(8aR)-octahydropyrrolo[1,2-a]piperazin-2-yl]-3-(trifluoromethyl)pyridin-2-yl}-5-(2,6-difluoro-4-methoxyphenyl)-1-methyl-3-oxo-2,3-dihydro-1H-pyrazol-4-yl)-4-(difluoromethoxy)benzamide]
2 | > 10000 nM | 5 nM | COc1cc(F)c(-c2c(NC(=O)c3ccc(OC(F)F)cc3)c(=O)n(-c3cc(C4CCN(C)CC4)cc(C)n3)n2C)c(F)c1 [Example 324, N-(5-(2,6-Difluoro-4-methoxyphenyl)-1-methyl-2-(6-methyl-4-(1-methylpiperidin-4-yl)pyridin-2-yl)-3-oxo-2,3-dihydro-1H-pyrazol-4-yl)-4-(difluoromethoxy)benzamide]
3 | > 10000 nM | 10 nM | COc1cc(F)c(-c2c(NC(=O)c3ccc(OC(F)F)cc3)c(=O)n(-c3nc(OC)ccc3C(F)(F)F)n2C)c(F)c1 [Example 257, N-[5-(2,6-difluoro-4-methoxyphenyl)-2-[6-methoxy-3-(trifluoromethyl)pyridin-2-yl]-1-methyl-3-oxo-2,3-dihydro-1H-pyrazol-4-yl]-4-(difluoromethoxy)benzamide]
4 | > 10000 nM | 1 nM | COc1cc(C2CCCN(C)C2)nc(-n2c(=O)c(NC(=O)c3ccc(OC(F)F)cc3)c(-c3c(F)cc(OC)cc3F)n2C)c1 (stereo not shown) [Example 343, N-(5-(2,6-Difluoro-4-methoxyphenyl)-2-(4-methoxy-6-(1-methylpiperidin-3-yl)pyridin-2-yl)-1-methyl-3-oxo-2,3-dihydro-1H-pyrazol-4-yl)-4-(difluoromethoxy)benzamide]
5 | 2900 nM | 10 nM | COc1cc(F)c(-c2c(NC(=O)c3ccc(C(F)(F)F)cc3)c(=O)n(-c3ccccc3)n2C)c(F)c1 [Example 5, N-[5-(2,6-difluoro-4-methoxyphenyl)-1-methyl-3-oxo-2-phenyl-2,3-dihydro-1H-pyrazol-4-yl]-4-(trifluoromethyl)benzamide]
6 | > 10000 nM | 5 nM | COc1cc(F)c(-c2c(NC(=O)c3ccc(OC(F)F)cc3)c(=O)n(-c3nc(OC)ccc3C#N)n2C)c(F)c1 [Example 185, N-[2-(3-cyano-6-methoxypyridin-2-yl)-5-(2,6-difluoro-4-methoxyphenyl)-1-methyl-3-oxo-2,3-dihydro-1H-pyrazol-4-yl]-4-(difluoromethoxy)benzamide]
7 | > 10000 nM | 3 nM | COc1cc(F)c(-c2c(NC(=O)c3ccc(OC(F)F)cc3)c(=O)n(-c3nc(N4CC5(CC(O)C5)C4)ccc3C(F)(F)F)n2C)c(F)c1 [Example 308, N-[5-(2,6-difluoro-4-methoxyphenyl)-2-(6-{6-hydroxy-2-azaspiro[3.3]heptan-2-yl}-3-(trifluoromethyl)pyridin-2-yl)-1-methyl-3-oxo-2,3-dihydro-1H-pyrazol-4-yl]-4-(difluoromethoxy)benzamide]
8 | 1500 nM | 1 nM | COc1ccc(-c2c(NC(=O)c3ccc(OC(F)F)cc3)c(=O)n(-c3nc(Cl)ccc3C(F)(F)F)n2C)c(F)c1 [Example 295, N-{2-[6-chloro-3-(trifluoromethyl)pyridin-2-yl]-5-(2-fluoro-4-methoxyphenyl)-1-methyl-3-oxo-2,3-dihydro-1H-pyrazol-4-yl}-4-(difluoromethoxy)benzamide]
9 | 470 nM | 8 nM | COc1cc(F)c(-c2c(NC(=O)c3ccc(OC(F)F)cc3)c(=O)n(-c3cc(OC(C)C)cc(OCC(C)(C)O)n3)n2C)c(F)c1 [Example 377, N-(5-(2,6-Difluoro-4-methoxyphenyl)-2-(6-(2-hydroxy-2-methylpropoxy)-4-isopropoxypyridin-2-yl)-1-methyl-3-oxo-2,3-dihydro-1H-pyrazol-4-yl)-4-(difluoromethoxy)benzamide]
10 | > 10000 nM | 18 nM | COc1cc(F)c(-c2c(NC(=O)c3ccc(Cl)cc3)c(=O)n(-c3ccccc3F)n2C)c(F)c1 [Example 30, 4-chloro-4-N-[5-(2,6-difluoro-4-methoxyphenyl)-2-(2-fluorophenyl)-1-methyl-3-oxo-2,3-dihydro-1H-pyrazol-4-yl]benzamide]
11 | > 10000 nM | 6 nM | COc1cc(F)c(-c2c(NC(=O)c3ccc(OC(F)F)cc3)c(=O)n(-c3nc(C(F)(F)F)ccc3OCCO)n2C)c(F)c1 [Example 372, N-(5-(2,6-Difluoro-4-methoxyphenyl)-2-(3-(2-hydroxyethoxy)-6-(trifluoromethyl)pyridin-2-yl)-1-methyl-3-oxo-2,3-dihydro-1H-pyrazol-4-yl)-4-(difluoromethoxy)benzamide]
12 | 830 nM | 22 nM | COc1cc(F)c(-c2c(NC(=O)c3ccc(OC(F)F)cc3)c(=O)n(-c3cccc(OCC(C)(C)O)n3)n2C)c(F)c1 [Example 392, N-(5-(2,6-Difluoro-4-methoxyphenyl)-2-(6-(2-hydroxy-2-methylpropoxy)pyridin-2-yl)-1-methyl-3-oxo-2,3-dihydro-1H-pyrazol-4-yl)-4-(difluoromethoxy)benzamide]
13 | > 10000 nM | 10 nM | COC(=O)[C@@H]1CCCN1c1ccc(C(F)(F)F)c(-n2c(=O)c(NC(=O)c3ccc(OC(F)F)cc3)c(-c3c(F)cc(OC)cc3F)n2C)n1 [Example 259, methyl (2S)-1-{6-[3-(2,6-difluoro-4-methoxyphenyl)-4-[4-(difluoromethoxy)benzamido]-2-methyl-5-oxo-2,5-dihydro-1H-pyrazol-1-yl]-5-(trifluoromethyl)pyridin-2-yl}pyrrolidine-2-carboxylate]
14 | > 10000 nM | 5 nM | COc1cc(F)c(-c2c(NC(=O)c3ccc(OC(F)F)cc3)c(=O)n(-c3nc(C(C)(C)O)ccc3C(F)(F)F)n2C)c(F)c1 [Example 275, N-[5-(2,6-difluoro-4-methoxyphenyl)-2-[6-(2-hydroxypropan-2-yl)-3-(trifluoromethyl)pyridin-2-yl]-1-methyl-3-oxo-2,3-dihydro-1H-pyrazol-4-yl]-4-(difluoromethoxy)benzamide]
15 | 3200 nM | 10 nM | COc1cc(F)c(-c2c(NC(=O)c3ccc(OC(F)F)cc3)c(=O)n(-c3nc(N4CCN(C)CC4)ccc3F)n2C)c(F)c1 [Example 219, N-[5-(2,6-difluoro-4-methoxyphenyl)-2-[3-fluoro-6-(4-methylpiperazin-1-yl)pyridin-2-yl]-1-methyl-3-oxo-2,3-dihydro-1H-pyrazol-4-yl]-4-(difluoromethoxy)benzamide]
16 | > 10000 nM | 2 nM | COc1cc(F)c(-c2c(NC(=O)c3ccc(OC(F)F)cc3)c(=O)n(-c3nc(C(C)(C)O)ccc3C#N)n2C)c(F)c1 [Example 291, N-{2-[3-cyano-6-(2-hydroxypropan-2-yl)pyridin-2-yl]-5-(2,6-difluoro-4-methoxyphenyl)-1-methyl-3-oxo-2,3-dihydro-1H-pyrazol-4-yl}-4-(difluoromethoxy)benzamide]
17 | 2200 nM | 10 nM | COc1cc(OC(CO)C(F)(F)F)nc(-n2c(=O)c(NC(=O)c3ccc(OC(F)F)cc3)c(-c3c(F)cc(OC)cc3F)n2C)c1 (stereo not shown) [Example 390, N-(5-(2,6-Difluoro-4-methoxyphenyl)-2-(4-methoxy-6-((1,1,1-trifluoro-3-hydroxypropan-2-yl)oxy)pyridin-2-yl)-1-methyl-3-oxo-2,3-dihydro-1H-pyrazol-4-yl)-4-(difluoromethoxy)benzamide]
18 | > 10000 nM | 7 nM | COc1cc(C2CCN(CCO)CC2)nc(-n2c(=O)c(NC(=O)c3ccc(OC(F)F)cc3)c(-c3c(F)cc(OC)cc3F)n2C)c1 [Example 368, N-(5-(2,6-Difluoro-4-methoxyphenyl)-2-(6-(1-(2-hydroxyethyl)piperidin-4-yl)-4-methoxypyridin-2-yl)-1-methyl-3-oxo-2,3-dihydro-1H-pyrazol-4-yl)-4-(difluoromethoxy)benzamide]
19 | 300 nM | 2 nM | COc1cc(F)c(-c2c(NC(=O)c3ccc(OC(F)F)cc3)c(=O)n(-c3cc(OCC4CCCO4)cc(C)n3)n2C)c(F)c1 (stereo not shown) [Example 396, N-(5-(2,6-Difluoro-4-methoxyphenyl)-1-methyl-2-(6-methyl-4-((tetrahydrofuran-2-yl)methoxy)pyridin-2-yl)-3-oxo-2,3-dihydro-1H-pyrazol-4-yl)-4-(difluoromethoxy)benzamide]
20 | 9500 nM | 10 nM | CCOc1ccnc(-n2c(=O)c(NC(=O)c3ccc(OC(F)F)cc3)c(-c3c(F)cc(OC)cc3F)n2C)c1 [Example 78, N-[5-(2,6-difluoro-4-methoxyphenyl)-2-(4-ethoxypyridin-2-yl)-1-methyl-3-oxo-2,3-dihydro-1H-pyrazol-4-yl]-4-(difluoromethoxy)benzamide]
